Measurements taken from patent publication US20240209028A1, “CNP COMPOUNDS” (priority 2022, published 2024).
Starred links: 1 amine or outer side, 2 acyl side, 3 side chain; linkers in the order of their positions; H or OH if unused. Positions of bridges follow the written chain, without caps; N, C: chain ends. Residues, ends and D or L forms follow the SMILES beside them. *: point of attachment. C18 diacid = O=C(O)CCCCCCCCCCCCCCCCC(=O)*; γGlu = O=C(O)[C@H](CCC(=O)[*:2])N[*:1]; AEEA = NCCOCCOCC(=O)O

Target: T1, human natriuretic peptide receptor 2 (hNPR2) (Homo sapiens, UniProt P20594)
T1 construct: expressed in transfected cells; host or cells: HEK293 (ATCC CRL-1573), clone 35, co-transfected with pGloSensor-42F
T1 sequence (P20594 23-1047): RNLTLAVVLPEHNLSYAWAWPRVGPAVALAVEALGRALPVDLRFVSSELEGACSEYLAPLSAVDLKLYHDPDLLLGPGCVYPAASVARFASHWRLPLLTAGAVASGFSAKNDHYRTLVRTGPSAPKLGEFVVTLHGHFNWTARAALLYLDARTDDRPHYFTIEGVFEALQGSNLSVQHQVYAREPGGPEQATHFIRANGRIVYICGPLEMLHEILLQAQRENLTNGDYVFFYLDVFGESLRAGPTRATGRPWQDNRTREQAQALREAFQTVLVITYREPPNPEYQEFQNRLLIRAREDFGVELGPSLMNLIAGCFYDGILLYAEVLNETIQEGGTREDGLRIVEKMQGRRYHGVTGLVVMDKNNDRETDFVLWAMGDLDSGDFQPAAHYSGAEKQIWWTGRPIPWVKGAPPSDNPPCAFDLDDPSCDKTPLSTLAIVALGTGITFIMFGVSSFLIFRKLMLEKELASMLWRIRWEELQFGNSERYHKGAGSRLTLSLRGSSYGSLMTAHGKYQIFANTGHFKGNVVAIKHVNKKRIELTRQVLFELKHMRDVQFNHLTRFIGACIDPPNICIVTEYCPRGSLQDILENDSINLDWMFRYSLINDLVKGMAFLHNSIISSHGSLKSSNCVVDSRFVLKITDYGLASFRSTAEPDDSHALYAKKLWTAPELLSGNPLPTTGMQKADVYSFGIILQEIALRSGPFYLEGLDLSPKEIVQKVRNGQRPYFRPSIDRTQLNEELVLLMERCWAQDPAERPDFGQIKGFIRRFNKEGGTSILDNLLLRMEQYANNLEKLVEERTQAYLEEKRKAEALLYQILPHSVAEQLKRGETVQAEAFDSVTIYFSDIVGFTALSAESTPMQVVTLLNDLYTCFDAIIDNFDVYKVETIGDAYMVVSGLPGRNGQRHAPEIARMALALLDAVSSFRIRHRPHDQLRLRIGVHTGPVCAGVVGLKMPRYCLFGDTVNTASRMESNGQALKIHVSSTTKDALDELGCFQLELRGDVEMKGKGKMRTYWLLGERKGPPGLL
Assay: In vitro hNPR2 activity assay (cGMP GloSensor reporter, HEK293)
Type: cell-based
Details: for hNPR2 0% HSA. [EC50% rel CNP]: potency relative to CNP22 (0065); for EC50: 0% HSA, HEK293-hNPR2/GloSensor cells
Description: To evaluate the in vitro activity of CNP22 (0065; Chem. 1) and CNP compounds of the invention, they were tested for their ability to induce production of cyclic guanosine monophosphate (cGMP) in reporter cells expressing the human natriuretic peptide receptor 2 (hNPR2).
Cell culture: To produce the reporter cell line, HEK293 (ATCC® CRL-1573™) cells were stably transfected with the pGloSensor-42F reporter plasmid (GloSensor cGMP reporter—luciferase, Promega) and an expression plasmid encoding the hNPR2 receptor. A single cell clone was isolated for the reporter cell line. When reporter cells are exposed to an hNPR2 activating compound, hNPR2 cause production of cGMP. […] Active GloSensor luciferase is able to convert luciferin to oxyluciferin, a process that produces bioluminescence. Upon cell lysis and supply of luciferase substrate, luciferase activity can be quantified by detection of luminescence. Therefore, addition of an hNPR2 activating compound and subsequent addition of detection reagent to reporter cells causes generation of luminescence in a dose dependent manner. […] This measure, also referred to as in vitro potency, is reported for all compounds tested. In all the in vitro activity experiments, CNP22 was used as a positive in-plate control for hNPR2 activation. To reduce inter-assay variation, we also report the potency of each compound relative to the potency of the CNP22 control on each plate.
Procedure: HEK293-hNPR2/GloSensor clone 35 cells were continuously cultured in selection medium (DMEM containing 10% FCS, 1% P/S, 200 μg/mL G418 and 100 μg/mL hygromycin). To perform the assay, cells were detached with TrypLE Express (Gibco #12604013), put through a 70 μm cell strainer, counted and seeded in 30 μL/well assay medium (DMEM without phenol red and with 1% P/S) at 10,000 cells/well in white 384-well plates (Perkin Elmer #6007680) overnight. The following day, test compounds were serial diluted in dilution medium (DMEM without phenol red containing 1% OVA (Sigma #A5505 lot 04M7001V), 0.01% Tween20 (Roche #33766700) and 1% P/S) and 10 μL/well of diluted test compounds were subsequently added to the cells. For each compound, ten different concentrations in the range 0.25 μM-10 μM were tested. After 30 min of incubation at 37° C. and 5% CO2, 40 μL/well Bright-Glo detection reagent (Promega #E2650) was added. […] To determine the in vitro potency or EC50 of each test compound, a four parameter logistic regression was done on the raw data for each test compound using the Python package SciPy optimize. The average EC50 values are listed as “hNPR2 0% HSA. [EC50 (nM)]” in Table 2. A relative potency was calculated by the following expression: EC50 (CNP22 in-plate control)/EC50 (test compound)*100, shown as “hNPR2 0% HSA. [EC50% rel CNP]” in Table 2. A minimum of two replicates was measured for each test compound.

SMILES	hNPR2 0% HSA. [EC50% rel CNP]	EC50
CC[C@H](C)[C@@H]1NC(=O)[C@H](CCCNC(=N)N)NC(=O)[C@H](CC(=O)O)NC(=O)[C@H](CC(C)C)NC(=O)[C@H](CCCCN)NC(=O)[C@H](CC(C)C)NC(=O)CNC(=O)[C@H](Cc2ccccc2)NC(=O)[C@@H](NC(=O)CNC(=O)[C@H](CCCCN)NC(=O)[C@H](CO)NC(=O)[C@H](CC(C)C)NC(=O)CN)CSSC[C@@H](C(=O)O)NC(=O)CNC(=O)[C@H](CC(C)C)NC(=O)CNC(=O)[C@H](CO)NC(=O)[C@H](CCSC)NC(=O)[C@H](CO)NC(=O)CNC1=O [compound 0065]	100.0%	
CC[C@H](C)[C@@H]1NC(=O)[C@H](CCCNC(=N)N)NC(=O)[C@H](CC(=O)O)NC(=O)[C@H](CC(C)C)NC(=O)[C@H](CCCCN)NC(=O)[C@H](CC(C)C)NC(=O)CNC(=O)[C@H](Cc2ccccc2)NC(=O)[C@@H](NC(=O)CNC(=O)[C@H](CCCCN)NC(=O)[C@H](CO)NC(=O)[C@H](CC(C)C)NC(=O)CNC(=O)COCCOCCNC(=O)COCCOCCNC(=O)CC[C@H](NC(=O)CCCCCCCCCCCCCCCCC(=O)O)C(=O)O)CSSC[C@@H](C(=O)O)NC(=O)CNC(=O)[C@H](CC(C)C)NC(=O)CNC(=O)[C@H](CO)NC(=O)[C@H](CCSC)NC(=O)[C@H](CO)NC(=O)CNC1=O [compound 0089]	3.1%	12.3 nM
CC[C@H](C)[C@@H]1NC(=O)[C@H](CCCNC(=N)N)NC(=O)[C@H](CC(=O)O)NC(=O)[C@H](CC(C)C)NC(=O)[C@H](CCCCN)NC(=O)[C@H](CC(C)C)NC(=O)CNC(=O)[C@H](Cc2ccccc2)NC(=O)[C@@H](NC(=O)CNC(=O)[C@H](CCCCN)NC(=O)[C@H](CO)NC(=O)[C@H](CC(C)C)NC(=O)CNC(=O)COCCOCCNC(=O)COCCOCCNC(=O)COCCOCCNC(=O)COCCOCCNC(=O)COCCOCCNC(=O)COCCOCCNC(=O)COCCOCCNC(=O)COCCOCCNC(=O)CC[C@H](NC(=O)CCCCCCCCCCCCCCCCC(=O)O)C(=O)O)CSSC[C@@H](C(=O)O)NC(=O)CNC(=O)[C@H](CC(C)C)NC(=O)CNC(=O)[C@H](CO)NC(=O)[C@H](CCSC)NC(=O)[C@H](CO)NC(=O)CNC1=O [compound 0231]	0.8%	14.5 nM
CC[C@H](C)[C@@H]1NC(=O)[C@H](CCCNC(=N)N)NC(=O)[C@H](CC(=O)O)NC(=O)[C@H](CC(C)C)NC(=O)[C@H](CCCCN)NC(=O)[C@H](CC(C)C)NC(=O)CNC(=O)[C@H](Cc2ccccc2)NC(=O)[C@@H](NC(=O)CNC(=O)[C@H](CCCCN)NC(=O)[C@H](CO)NC(=O)[C@H](CC(C)C)NC(=O)CNC(=O)[C@H](CCCCN)NC(=O)[C@H](CCCCN)NC(=O)[C@H](CCC(N)=O)NC(=O)[C@H](C)NC(=O)CNC(=O)[C@H](CCC(=O)O)NC(=O)[C@H](Cc2ccc(O)cc2)NC(=O)COCCOCCNC(=O)COCCOCCNC(=O)CC[C@H](NC(=O)CCCCCCCCCCCCCCCCC(=O)O)C(=O)O)CSSC[C@@H](C(=O)O)NC(=O)CNC(=O)[C@H](CC(C)C)NC(=O)CNC(=O)[C@H](CO)NC(=O)[C@H](CC(C)C)NC(=O)[C@H](CO)NC(=O)CNC1=O [compound 1221]	35.9%	1.17 nM
CC[C@H](C)[C@@H]1NC(=O)[C@H](CCCNC(=N)N)NC(=O)[C@H](CC(=O)O)NC(=O)[C@H](CC(C)C)NC(=O)[C@H](CCCCN)NC(=O)[C@H](CC(C)C)NC(=O)CNC(=O)[C@H](Cc2ccccc2)NC(=O)[C@@H](NC(=O)CNC(=O)[C@H](CCCCN)NC(=O)[C@H](CO)NC(=O)[C@H](CC(C)C)NC(=O)CNC(=O)[C@H](CCCCN)NC(=O)[C@H](CCCCN)NC(=O)[C@H](CCC(N)=O)NC(=O)[C@H](C)NC(=O)CNC(=O)[C@H](CCC(=O)O)NC(=O)[C@H](CCC(=O)O)NC(=O)COCCOCCNC(=O)COCCOCCNC(=O)CC[C@H](NC(=O)CCCCCCCCCCCCCCCCC(=O)O)C(=O)O)CSSC[C@@H](C(=O)O)NC(=O)CNC(=O)[C@H](CC(C)C)NC(=O)CNC(=O)[C@H](CO)NC(=O)[C@H](CC(C)C)NC(=O)[C@H](CO)NC(=O)CNC1=O [compound 1222]	14.3%	2.94 nM
CC[C@H](C)[C@@H]1NC(=O)[C@H](CCCNC(=N)N)NC(=O)[C@H](CC(=O)O)NC(=O)[C@H](CC(C)C)NC(=O)[C@H](CCCCN)NC(=O)[C@H](CC(C)C)NC(=O)CNC(=O)[C@H](Cc2ccccc2)NC(=O)[C@@H](NC(=O)CNC(=O)[C@H](CCCCN)NC(=O)[C@H](CO)NC(=O)[C@H](CC(C)C)NC(=O)CNC(=O)[C@H](CCCCN)NC(=O)[C@H](CCC(=O)O)NC(=O)[C@H](CCC(N)=O)NC(=O)[C@H](C)NC(=O)CNC(=O)[C@H](CCC(=O)O)NC(=O)[C@H](Cc2ccc(O)cc2)NC(=O)COCCOCCNC(=O)COCCOCCNC(=O)CC[C@H](NC(=O)CCCCCCCCCCCCCCCCC(=O)O)C(=O)O)CSSC[C@@H](C(=O)O)NC(=O)CNC(=O)[C@H](CC(C)C)NC(=O)CNC(=O)[C@H](CO)NC(=O)[C@H](CC(C)C)NC(=O)[C@H](CO)NC(=O)CNC1=O [compound 1223] ({C18 diacid-γGlu-AEEA-AEEA}-YEGAQEKGLSKGCFGLKLDRIGSLSGLGC-OH; disulfide 13-29)	6.77%	1.05 nM
CC[C@H](C)[C@@H]1NC(=O)[C@H](CCCNC(=N)N)NC(=O)[C@H](CC(=O)O)NC(=O)[C@H](CC(C)C)NC(=O)[C@H](CCCCN)NC(=O)[C@H](CC(C)C)NC(=O)CNC(=O)[C@H](Cc2ccccc2)NC(=O)[C@@H](NC(=O)CNC(=O)[C@H](CO)NC(=O)[C@H](CO)NC(=O)[C@H](CC(C)C)NC(=O)CNC(=O)[C@H](CCCCN)NC(=O)[C@H](CCCCN)NC(=O)[C@H](CCC(N)=O)NC(=O)[C@H](C)NC(=O)CNC(=O)[C@H](CCC(=O)O)NC(=O)[C@H](Cc2ccc(O)cc2)NC(=O)COCCOCCNC(=O)COCCOCCNC(=O)CC[C@H](NC(=O)CCCCCCCCCCCCCCCCC(=O)O)C(=O)O)CSSC[C@@H](C(=O)O)NC(=O)CNC(=O)[C@H](CC(C)C)NC(=O)CNC(=O)[C@H](CO)NC(=O)[C@H](CC(C)C)NC(=O)[C@H](CO)NC(=O)CNC1=O [compound 1224] ({C18 diacid-γGlu-AEEA-AEEA}-YEGAQKKGLSSGCFGLKLDRIGSLSGLGC-OH; disulfide 13-29)	16.9%	0.86 nM
